In patent US5693524A, “Anticoccidial composition of UK-61 689 and Actinomadura mycelium” (Pfizer Inc., priority 1995, dated 1997):
Converted amounts (≈) assume the structure as drawn. Where two headings read alike, the source gives them in different places.

Key:
[1] = test system: Clostridium perfringens; assay: microbe, parasite or virus in culture; type: cell-based; details: 24 h
[2] = test system: Actinomyces pyogenes; assay: In vitro minimal inhibitory concentration (MIC), Actinomyces pyogenes; type: cell-based; details: 24 hours
[3] = test system: Treponema hyodysenteriae; assay: In vitro minimal inhibitory concentration (MIC), Treponema hyodysenteriae; type: cell-based
[4] = test system: Gram-positive microorganisms; assay: Inhibitory action against growth of Gram-positive microorganisms in vitro; type: cell-based
Procedure: In Table I, below, the results of in vitro tests are summarized. For this test each organism is inoculated in a series of test tubes containing nutrient medium and varying concentrations of Antibiotic UK-61,689 to determine the minimal concentration of the compound in g/ml which inhibits the growth of the organism over a period of 24 hours (MIC).

[5] = test system: coccidial infections in poultry; assay: Activity against coccidial infections in poultry (lesion scores)
[6] = test system: E. maxima; assay: Efficacy against coccidial infection in chickens, E. maxima (lesion scores 0 to 3); details: in diet at levels of 15 to 120 ppm
[7] = test system: E. brunetti; assay: Efficacy against coccidial infection in chickens, E. brunetti (lesion scores 0 to 3); details: in diet at levels of 15 to 120 ppm
[8] = test system: E. necatrix; assay: Efficacy against coccidial infection in chickens, E. necatrix (lesion scores 0 to 3); details: in diet at levels of 15 to 120 ppm
[9] = test system: E. acervulina; assay: Efficacy against coccidial infection in chickens, E. acervulina (lesion scores 0 to 3); details: in diet at levels of 15 to 120 ppm, evaluated after five days
[10] = test system: Eimeria tenella; assay: Efficacy against coccidial infection in chickens, Eimeria tenella (lesion scores 0 to 4); details: in diet at levels of 15 to 120 ppm
[11] = test system: coccidiosis; details: EP application 169011; cited from earlier work

COC1CCC(OC2CC(C3OC(C)(O)C(C)CC3C)OC2C2(C)CCC(C3(C)CCC4(CC(O)C(C)C(C(C)C5OC(O)(CC(=O)O)C(C)C(O)C5OC)O4)O3)O2)OC1C (stereo not shown) [UK-61,689]
MIC ([1]; Clostridium perfringens strain 10A006): 50 µg/mL (≈ 57.3 µM) | MIC ([1]; Clostridium perfringens strain 10A009): 12.5 µg/mL (≈ 14.3 µM) | MIC ([2]; Actinomyces pyogenes strain 14D008): 50 µg/mL (≈ 57.3 µM) | MIC ([2]; Actinomyces pyogenes strain 14D011): 50 µg/mL (≈ 57.3 µM) | MIC ([2]; Trueperella pyogenes, Actinomyces pyogenes strain 14D002, read-out: MIC): 50 µg/mL (≈ 57.3 µM) | MIC ([3]; Brachyspira hyodysenteriae, 24 h, Treponema hyodysenteriae strain 94A001): 3.12 µg/mL (≈ 3.57 µM) | MIC ([3]; Brachyspira hyodysenteriae, 24 h, Treponema hyodysenteriae strain 94A002): 3.12 µg/mL (≈ 3.57 µM) | MIC ([3]; Brachyspira hyodysenteriae, Treponema hyodysenteriae strain 94A007, 24 hours, read-out: MIC): 1.56 µg/mL (≈ 1.79 µM) | MIC ([3]; Treponema hyodysenteriae strain 94A008, 24 hours): 1.56 µg/mL (≈ 1.79 µM) | inhibitory action against the growth of Gram-positive microorganisms [4]: exhibits inhibitory action against the growth of a number of Gram-positive microorganisms | activity against coccidial infections in poultry [5]: excellent activity | controlling infections due to E. maxima [6]: effective in controlling infections | controlling infections due to E. brunetti [7]: effective in controlling infections | controlling infections due to E. necatrix [8]: effective in controlling infections | controlling infections due to E. acervulina [9]: effective in controlling infections | controlling infections due to Eimeria tenella [10]: effective in controlling infections

COC1CCC(OC2CC(C3OC(C)(OC)C(C)CC3C)OC2C2(C)CCC(C3(C)CCC4(CC(O)C(C)C(C(C)C5OC(O)(CC(=O)O)C(C)C(OC6CCC(OC)C(C)O6)C5OC)O4)O3)O2)OC1C (stereo not shown) [CP-70,228]
antibiotic / anticoccidial effectiveness [11]: antibiotically effective in controlling coccidiosis

COC1CCC(OC2CC(C3OC(C)(O)C(C)CC3C)OC2C2(C)CCC(C3(C)CCC4(CC(O)C(C)C(C(C)C5OC(O)(CC(=O)O)C(C)C(OC6CCC(OC)C(C)O6)C5OC)O4)O3)O2)OC1C (stereo not shown) [UK-58,852]
antibiotic / anticoccidial effectiveness [11]: effective antibiotic, especially anticoccidial agent

COC1CCC(OC2CC(C3OC(C)(OC)C(C)CC3C)OC2C2(C)CCC(C3(C)CCC4(CC(OC)C(C)C(C(C)C5OC(O)(CC(=O)O)C(C)C(OC6CCC(OC)C(C)O6)C5OC)O4)O3)O2)OC1C (stereo not shown) [CP-70,828]
antibiotic / anticoccidial effectiveness [11]: antibiotically effective in controlling coccidiosis
